Laboratory results taken from PMC11272821, “Mechanistic safety assessment via multi-omic characterisation of systemic pathway perturbations following in vivo MAT2A inhibition” (Archives of Toxicology, 2024).

Experiments:
Assay in all cases: Cell based functional assay
5-HT7 receptor = biological target: T1, 5-HT7 receptor (Homo sapiens, UniProt P34969)
T1 construct: Eurofins
Experimental: (§1) Secondary pharmacology assays were performed at Eurofins using standard experimental techniques against a total of 86 targets across a broad pharmacological space. Assay details along with experimental protocols are described at https://www.eurofinsdiscoveryservices.com. […] Assays measuring substrate turnover or phosphorylation by isolated proteins were used for kinase and enzyme targets, allowing direct determination of the mode of action of the compounds. […] Assays were run in eight points concentration response mode with half log dilutions and IC50, EC50 or Ki (Cheng and Prusoff [1973]) values determined.

A1 adenosine receptor = biological target: T2, A1 adenosine receptor (Homo sapiens, UniProt P30542); conditions: mode of action ND
T2 construct: purchased Eurofins
T2 sequence (P30542 whole entry): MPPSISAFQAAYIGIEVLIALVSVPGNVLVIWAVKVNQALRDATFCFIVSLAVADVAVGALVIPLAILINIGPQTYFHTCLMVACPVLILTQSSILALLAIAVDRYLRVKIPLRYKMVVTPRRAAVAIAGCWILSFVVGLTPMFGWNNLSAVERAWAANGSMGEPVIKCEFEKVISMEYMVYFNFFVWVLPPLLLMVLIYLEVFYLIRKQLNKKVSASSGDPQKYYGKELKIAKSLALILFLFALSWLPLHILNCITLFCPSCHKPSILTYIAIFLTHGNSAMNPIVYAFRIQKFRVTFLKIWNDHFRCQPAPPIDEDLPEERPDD
Experimental: as §1

A2A adenosine receptor = biological target: T3, A2A adenosine receptor (Homo sapiens, UniProt P29274); conditions: mode of action ND
T3 construct: Eurofins
T3 sequence (P29274 whole entry): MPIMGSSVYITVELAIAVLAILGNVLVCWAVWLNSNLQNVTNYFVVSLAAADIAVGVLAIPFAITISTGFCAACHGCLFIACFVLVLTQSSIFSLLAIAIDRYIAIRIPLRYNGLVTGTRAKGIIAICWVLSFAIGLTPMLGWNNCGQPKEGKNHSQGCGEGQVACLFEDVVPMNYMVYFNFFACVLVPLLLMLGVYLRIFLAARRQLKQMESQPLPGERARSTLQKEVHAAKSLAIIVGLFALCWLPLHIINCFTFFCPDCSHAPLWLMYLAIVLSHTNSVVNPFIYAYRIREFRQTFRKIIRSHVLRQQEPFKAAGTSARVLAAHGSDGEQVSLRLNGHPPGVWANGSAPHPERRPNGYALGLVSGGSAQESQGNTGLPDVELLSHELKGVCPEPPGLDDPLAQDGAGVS
Experimental: as §1

CB1 cannabinoid receptor = biological target: T4, CB1 cannabinoid receptor (Homo sapiens, UniProt P21554); conditions: mode of action ND
T4 construct: purchased Eurofins
T4 sequence (P21554 whole entry): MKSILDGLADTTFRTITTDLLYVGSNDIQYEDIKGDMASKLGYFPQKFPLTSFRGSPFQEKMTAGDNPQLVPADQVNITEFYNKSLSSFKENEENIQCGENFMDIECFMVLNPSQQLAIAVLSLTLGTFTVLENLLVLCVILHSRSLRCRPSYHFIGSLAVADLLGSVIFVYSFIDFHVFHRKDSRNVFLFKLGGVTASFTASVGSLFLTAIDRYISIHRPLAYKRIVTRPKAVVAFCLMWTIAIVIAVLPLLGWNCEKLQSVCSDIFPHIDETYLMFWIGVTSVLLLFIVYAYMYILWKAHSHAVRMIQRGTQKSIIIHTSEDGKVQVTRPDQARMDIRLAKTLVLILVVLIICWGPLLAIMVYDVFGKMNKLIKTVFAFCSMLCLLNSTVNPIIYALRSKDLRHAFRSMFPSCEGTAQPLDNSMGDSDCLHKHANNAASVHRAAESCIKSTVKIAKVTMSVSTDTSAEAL
Experimental: as §1

M2 muscarinic receptor = biological target: T5, M2 muscarinic receptor (Homo sapiens, UniProt P08172)
T5 construct: Eurofins
T5 sequence (P08172 1-466): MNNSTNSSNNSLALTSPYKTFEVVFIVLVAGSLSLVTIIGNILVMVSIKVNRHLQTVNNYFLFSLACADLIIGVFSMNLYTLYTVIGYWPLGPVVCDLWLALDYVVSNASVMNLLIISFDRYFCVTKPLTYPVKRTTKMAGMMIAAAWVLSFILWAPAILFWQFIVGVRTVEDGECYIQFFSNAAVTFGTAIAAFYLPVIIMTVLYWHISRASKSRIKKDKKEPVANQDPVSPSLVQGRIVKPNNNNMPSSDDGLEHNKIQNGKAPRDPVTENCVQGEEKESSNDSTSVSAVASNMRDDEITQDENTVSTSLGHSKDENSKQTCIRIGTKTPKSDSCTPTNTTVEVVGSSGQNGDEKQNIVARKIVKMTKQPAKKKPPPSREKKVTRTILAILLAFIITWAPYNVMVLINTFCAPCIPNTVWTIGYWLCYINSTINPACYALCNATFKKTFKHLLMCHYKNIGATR
Experimental: as §1

α1B adrenoceptor = biological target: T6, α1B adrenoceptor (Homo sapiens, UniProt P35368)
T6 construct: Eurofins
T6 sequence (P35368 1-520): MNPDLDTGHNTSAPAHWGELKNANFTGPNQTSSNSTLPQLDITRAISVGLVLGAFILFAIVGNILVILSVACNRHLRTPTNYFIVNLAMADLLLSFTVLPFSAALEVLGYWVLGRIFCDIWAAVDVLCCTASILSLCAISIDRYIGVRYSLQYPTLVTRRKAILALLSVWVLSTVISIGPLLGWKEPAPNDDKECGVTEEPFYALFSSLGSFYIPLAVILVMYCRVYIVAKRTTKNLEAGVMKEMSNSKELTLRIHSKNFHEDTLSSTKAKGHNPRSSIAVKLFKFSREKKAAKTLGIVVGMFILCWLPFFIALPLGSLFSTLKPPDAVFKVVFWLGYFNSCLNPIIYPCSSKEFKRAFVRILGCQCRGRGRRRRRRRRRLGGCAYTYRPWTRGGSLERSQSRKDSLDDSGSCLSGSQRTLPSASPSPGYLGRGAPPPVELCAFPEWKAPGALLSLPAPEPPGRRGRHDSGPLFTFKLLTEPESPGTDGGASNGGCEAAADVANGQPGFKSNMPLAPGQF
Experimental: as §1

[1] = Antagonist, read-out: Functional IC50 or EC50

T1 sequence (P34969 whole entry): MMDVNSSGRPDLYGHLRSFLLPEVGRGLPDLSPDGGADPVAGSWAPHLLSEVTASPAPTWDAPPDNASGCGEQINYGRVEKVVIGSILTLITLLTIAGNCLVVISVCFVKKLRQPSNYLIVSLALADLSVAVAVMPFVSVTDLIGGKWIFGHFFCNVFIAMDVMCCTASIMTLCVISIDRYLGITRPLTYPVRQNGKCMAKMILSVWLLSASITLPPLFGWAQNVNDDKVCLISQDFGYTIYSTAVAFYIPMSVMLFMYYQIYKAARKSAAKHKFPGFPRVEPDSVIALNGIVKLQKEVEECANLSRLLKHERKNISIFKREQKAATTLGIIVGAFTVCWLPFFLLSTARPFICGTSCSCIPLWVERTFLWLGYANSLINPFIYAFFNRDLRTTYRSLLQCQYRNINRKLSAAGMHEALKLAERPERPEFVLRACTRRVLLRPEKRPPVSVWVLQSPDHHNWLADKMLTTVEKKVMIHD

SMILES: Cn1cc2cc(-c3cc4[nH]nc(C5CC5)c4n(-c4ccc(OC(F)F)cc4)c3=O)ccc2n1 [AZ’9567]
- Pharmacological mode of action (5-HT7 receptor): Antagonist
- IC50 (5-HT7 receptor; [1]): 2.9 µM
- Functional IC50 or EC50 (A1 adenosine receptor): >30.1 µM
- Functional IC50 or EC50 (A2A adenosine receptor): >100 µM
- Functional IC50 or EC50 (CB1 cannabinoid receptor): >100 µM
- Pharmacological mode of action (M2 muscarinic receptor): Antagonist
- IC50 (M2 muscarinic receptor; [1]): 17.1 µM
- Pharmacological mode of action (α1B adrenoceptor): Antagonist
- IC50 (α1B adrenoceptor; [1]): 28.9 µM
